The values below come from patent US20260103461A1, “ESTROGEN RECEPTOR MODULATORS AND USES THEREOF” (Olema Pharmaceuticals, Inc., priority 2022, published 2026).

In the test the target is T1, estrogen receptor (Homo sapiens, UniProt P03372).
T1 construct: endogenous in cells; host or cells: ECC-1 cells
T1 sequence (P03372 1-595): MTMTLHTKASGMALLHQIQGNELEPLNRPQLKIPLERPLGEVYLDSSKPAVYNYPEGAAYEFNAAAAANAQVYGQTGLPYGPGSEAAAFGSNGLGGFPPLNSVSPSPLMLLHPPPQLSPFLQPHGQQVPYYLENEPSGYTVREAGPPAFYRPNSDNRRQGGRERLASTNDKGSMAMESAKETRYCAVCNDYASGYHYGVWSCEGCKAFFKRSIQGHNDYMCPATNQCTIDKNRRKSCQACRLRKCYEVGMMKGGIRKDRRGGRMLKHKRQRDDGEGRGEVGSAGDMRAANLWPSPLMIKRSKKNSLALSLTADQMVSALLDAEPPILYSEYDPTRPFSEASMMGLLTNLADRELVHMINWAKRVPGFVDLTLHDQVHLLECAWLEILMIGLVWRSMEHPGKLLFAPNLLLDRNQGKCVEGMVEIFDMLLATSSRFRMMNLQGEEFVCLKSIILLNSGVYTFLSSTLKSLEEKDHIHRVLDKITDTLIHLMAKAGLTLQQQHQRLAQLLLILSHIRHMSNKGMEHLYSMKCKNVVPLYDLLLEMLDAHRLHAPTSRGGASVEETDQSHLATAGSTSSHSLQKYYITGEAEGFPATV
Put plainly: AP (alkaline phosphatase) assay in ECC-1 cells, agonist mode and antagonist mode. The settings on record: 3 days, absence of E2 (agonist mode) or 500 pM E2 (antagonist mode), AP activity normalized to 500 pM E2 alone. The class given is cell-based. As to the method: ECC-1 cells were trypsinized and resuspended in hormone-depleted media and plated at a density of 15 k cells per well into a 96-well plate for at least 4 hours. Cells were treated with test compounds in the absence of E2 (for agonist mode) or in the presence of 500 pM E2 (for antagonist mode) for 3 days and plates were subsequently frozen at −80° C. Thawed plates were incubated with a chromogenic substrate of AP, p-nitrophenyl phosphate (Thermo Fisher Scientific), for 40 minutes at 42° C., and absorbances were read at 405 nm. AP activity was normalized to the activity of 500 pM E2 alone.
The compound numbers correspond to the compound numbers of Table 1 and 2. Compounds having an activity designated as “+” provided estrogen receptor agonism having (i) at least 80% increase in the E2-normalized signal in the AP assay (agonist mode) and (ii) no more than 80% reduction in the E2-normalized signal in the AP assay (antagonist mode). Compounds having an activity designated as “++” provided estrogen receptor antagonism having (i) between 10% and 80% increase in the E2-normalized signal in the AP assay (agonist mode) and (ii) between 10% and 80% reduction in the E2-normalized signal in the AP assay (antagonist mode).

Regarding `C[C@@H]1Cc2c([nH]c3ccccc23)[C@@H](c2ccc(O[C@@H]3CCN(CCCF)C3)s2)N1CC(F)F` [Example I-19, (1S,3R)-2-(2,2-difluoroethyl)-1-[5-[(3R)-1-(3-fluoropropyl)pyrrolidin-3-yl]oxy-2-thienyl]-3-methyl-1,3,4,9-tetrahydropyrido[3,4-b]indole], the “Activity (estrogen receptor modulation, agonism and antagonism)” value (from here on “Activity”) is “+++ (estrogen receptor antagonism (i) with pIC50 greater than 7.5 and at least a 10% reduction in the E2-normalized signal in the AP assay (antagonist mode); and no more than 10% increase in E2-normalized signal in the AP assay (agonist mode))”.
In the case of `C[C@@H]1Cc2c([nH]c3ccccc23)[C@@H](c2ccc(O[C@H]3CCN(CCCF)C3)s2)N1CC(C)(C)F` [Example I-4, (3S)-3-({5-[(1S,3R)-2-(2-fluoro-2-methylpropyl)-3-methyl-1H,2H,3H,4H,9H-pyrido[3,4-b]indol-1-yl]thiophen-2-yl}oxy)-1-(3-fluoropropyl)pyrrolidine], the “Activity” value is “+++ (estrogen receptor antagonism (i) with pIC50 greater than 7.5 and at least a 10% reduction in the E2-normalized signal in the AP assay (antagonist mode); and no more than 10% increase in E2-normalized signal in the AP assay (agonist mode))”.
For `C[C@@H]1Cc2c([nH]c3ccccc23)[C@@H](c2ncc(O[C@@H]3CCN(CCCF)C3)s2)N1CC(F)(F)CO` [Example I-24, 2,2-difluoro-3-[(1S,3R)-1-[5-[(3R)-1-(3-fluoropropyl)pyrrolidin-3-yl]oxythiazol-2-yl]-3-methyl-1,3,4,9-tetrahydropyrido[3,4-b]indol-2-yl]propan-1-ol] the value was “++ (estrogen receptor antagonism having (i) between 10% and 80% increase in the E2-normalized signal in the AP assay (agonist mode) and (ii) between 10% and 80% reduction in the E2-normalized signal in the AP assay (antagonist mode))”; for `C[C@@H]1Cc2c([nH]c3ccccc23)[C@@H](c2ccc(O[C@H]3CCN(CCC(F)F)C3)s2)N1CC(C)(C)F` [Example I-8, (1S,3R)-1-(5-(((S)-1-(3,3-difluoropropyl)pyrrolidin-3-yl)oxy)thiophen-2-yl)-2-(2-fluoro-2-methylpropyl)-3-methyl-2,3,4,9-tetrahydro-1H-pyrido[3,4-b]indole], “++ (estrogen receptor antagonism having (i) between 10% and 80% increase in the E2-normalized signal in the AP assay (agonist mode) and (ii) between 10% and 80% reduction in the E2-normalized signal in the AP assay (antagonist mode))”; for `C[C@@H]1[C@H](Oc2ncc([C@@H]3c4[nH]c5ccccc5c4C[C@@H](C)N3CC(F)(F)CO)s2)CCN1CCCF` [Example I-35, 2,2-difluoro-3-[(1S,3R)-1-[2-[(2R,3R)-1-(3-fluoropropyl)-2-methyl-pyrrolidin-3-yl]oxythiazol-5-yl]-3-methyl-1,3,4,9-tetrahydropyrido[3,4-b]indol-2-yl]propan-1-ol], “+ (estrogen receptor agonism having (i) at least 80% increase in the E2-normalized signal in the AP assay (agonist mode) and (ii) no more than 80% reduction in the E2-normalized signal in the AP assay (antagonist mode))”.
Regarding `C[C@@H]1Cc2c([nH]c3ccccc23)[C@@H](c2ccc(OC3CN(CCCF)C3)s2)N1CC(F)(F)CO` [Example I-12, 2,2-difluoro-3-[(1S,3R)-1-[5-[1-(3-fluoropropyl)azetidin-3-yl]oxy-2-thienyl]-3-methyl-1,3,4,9-tetrahydropyrido[3,4-b]indol-2-yl]propan-1-ol], the “Activity” value is “+++ (estrogen receptor antagonism (i) with pIC50 greater than 7.5 and at least a 10% reduction in the E2-normalized signal in the AP assay (antagonist mode); and no more than 10% increase in E2-normalized signal in the AP assay (agonist mode))”.
For `C[C@@H]1Cc2c([nH]c3ccccc23)[C@@H](c2sc(OC3CN(CCCF)C3)cc2F)N1CC(F)(F)CO` [Example I-26, 2,2-difluoro-3-[(1S,3R)-1-[3-fluoro-5-[1-(3-fluoropropyl)azetidin-3-yl]oxy-2-thienyl]-3-methyl-1,3,4,9-tetrahydropyrido[3,4-b]indol-2-yl]propan-1-ol], the “Activity” value is “+++ (estrogen receptor antagonism (i) with pIC50 greater than 7.5 and at least a 10% reduction in the E2-normalized signal in the AP assay (antagonist mode); and no more than 10% increase in E2-normalized signal in the AP assay (agonist mode))”.
As for `C[C@@H]1Cc2c([nH]c3ccccc23)[C@@H](c2cnc(O[C@H]3CCCN(CCCF)C3)s2)N1CC(F)(F)CO` [Example I-38], the “Activity” value is “+ (estrogen receptor agonism having (i) at least 80% increase in the E2-normalized signal in the AP assay (agonist mode) and (ii) no more than 80% reduction in the E2-normalized signal in the AP assay (antagonist mode))”.
In the case of `C[C@@H]1Cc2c([nH]c3ccccc23)[C@@H](c2ncc(OC3CN(CCCF)C3)s2)N1CC(C)(C)F` [Example I-9, 2-[(1S,3R)-2-(2-fluoro-2-methyl-propyl)-3-methyl-1,3,4,9-tetrahydropyrido[3,4-b]indol-1-yl]-5-[1-(3-fluoropropyl)azetidin-3-yl]oxy-thiazole] it was “++ (estrogen receptor antagonism having (i) between 10% and 80% increase in the E2-normalized signal in the AP assay (agonist mode) and (ii) between 10% and 80% reduction in the E2-normalized signal in the AP assay (antagonist mode))”.
In the case of `C[C@@H]1C[C@@H](Oc2ncc([C@@H]3c4[nH]c5ccccc5c4C[C@@H](C)N3CC(F)(F)CO)s2)CN1CCCF` [Example I-30, 2,2-difluoro-3-[(1S,3R)-1-[2-[(3R,5R)-1-(3-fluoropropyl)-5-methyl-pyrrolidin-3-yl]oxythiazol-5-yl]-3-methyl-1,3,4,9-tetrahydropyrido[3,4-b]indol-2-yl]propan-1-ol] it was “+ (estrogen receptor agonism having (i) at least 80% increase in the E2-normalized signal in the AP assay (agonist mode) and (ii) no more than 80% reduction in the E2-normalized signal in the AP assay (antagonist mode))”.
In the case of `C[C@@H]1Cc2c([nH]c3ccccc23)[C@@H](c2ncc(OC3CN(CCCF)C3)s2)N1CC(F)(F)CO` [Example I-22, 2,2-difluoro-3-[(1S,3R)-1-[5-[1-(3-fluoropropyl)azetidin-3-yl]oxythiazol-2-yl]-3-methyl-1,3,4,9-tetrahydropyrido[3,4-b]indol-2-yl]propan-1-ol] it was “++ (estrogen receptor antagonism having (i) between 10% and 80% increase in the E2-normalized signal in the AP assay (agonist mode) and (ii) between 10% and 80% reduction in the E2-normalized signal in the AP assay (antagonist mode))”; in that of `C[C@@H]1Cc2c([nH]c3ccccc23)[C@@H](c2ccc(O[C@@H]3CCN(CCCF)C3)s2)N1CC(F)(F)CO` [Example I-13, 2,2-difluoro-3-[(1S,3R)-1-[5-[(3R)-1-(3-fluoropropyl)pyrrolidin-3-yl]oxy-2-thienyl]-3-methyl-1,3,4,9-tetrahydropyrido[3,4-b]indol-2-yl]propan-1-ol], “+++ (estrogen receptor antagonism (i) with pIC50 greater than 7.5 and at least a 10% reduction in the E2-normalized signal in the AP assay (antagonist mode); and no more than 10% increase in E2-normalized signal in the AP assay (agonist mode))”; in that of `C[C@@H]1Cc2c([nH]c3ccccc23)[C@@H](c2cnc(O[C@H]3CN(CCCF)C[C@H]3F)s2)N1CC(F)(F)CO` [Example I-33, 2,2-difluoro-3-[(1S,3R)-1-[2-[(3S,4R)-4-fluoro-1-(3-fluoropropyl)pyrrolidin-3-yl]oxythiazol-5-yl]-3-methyl-1,3,4,9-tetrahydropyrido[3,4-b]indol-2-yl]propan-1-ol], “+++ (estrogen receptor antagonism (i) with pIC50 greater than 7.5 and at least a 10% reduction in the E2-normalized signal in the AP assay (antagonist mode); and no more than 10% increase in E2-normalized signal in the AP assay (agonist mode))”.
In the case of `C[C@@H]1Cc2c([nH]c3ccccc23)[C@@H](c2ncc(OC3CN(CCCF)C3)s2)N1CC(F)F` [Example I-18, 2-[(1S,3R)-2-(2,2-difluoroethyl)-3-methyl-1,3,4,9-tetrahydropyrido[3,4-b]indol-1-yl]-5-[1-(3-fluoropropyl)azetidin-3-yl]oxy-thiazole], the “Activity” value was “++ (estrogen receptor antagonism having (i) between 10% and 80% increase in the E2-normalized signal in the AP assay (agonist mode) and (ii) between 10% and 80% reduction in the E2-normalized signal in the AP assay (antagonist mode))”.
